The record followed here is patent publication US9663523B2, “BET protein-inhibiting 5-aryltriazoleazepines” (BAYER PHARMA AKTIENGESELLSCHAFT, priority 2012, dated 2017).

Broadly, the IC50 is the midpoint of a concentration-inhibition curve. A higher IC50 goes with weaker potency in that assay.

In assay [1] the target is BRD4(1) (amino acids 44-168) (Homo sapiens (Human), UniProt O60885). As to the kind of experiment: BRD4 binding strength, TR-FRET (HTRF) assay of BRD4(1) / acetylated histone H4 peptide interaction. The settings on record: inhibition of BRD4(1)/Ac-H4 peptide interaction. An excerpt:
To assess the BRD4 binding strength of the compounds according to the invention, the ability thereof to inhibit the interaction between BRD4 and acetylated histone H4 in a dose-dependent manner was quantified. For this purpose, a time-resolved fluorescence resonance energy transfer (TR-FRET) assay was used, which measures the binding between N-terminally His6-tagged BRD4(1) (amino acids 44-168) and a synthetic acetylated histone H4 (Ac-H4) peptide with sequence […]-biotin. The recombinant BRD4 protein produced in-house according to Filippakopoulos et al., Cell, 2012, 149:214-231 was expressed in E. coli and purified by means of (Ni-NTA) affinity and (Sephadex G-75) size exclusion chromatography. The Ac-H4 peptide can be purchased, for example, from Biosyntan (Berlin, Germany). […] For this purpose, 100-fold concentrated solutions in DMSO were prepared by serial dilutions (1:3.4) of a 2 mM stock solution into a clear, 384-well microtitre plate (Greiner Bio-One, Frickenhausen, Germany). From this, 50 nl were transferred into a black test plate (Greiner Bio-One, Frickenhausen, Germany). […] This was followed by a 10-minute incubation step at 22° C. for the pre-equilibration of putative complexes between BRD4 and the substances. Subsequently, 3 μl of a solution of 1.67 times the concentration (in assay buffer) consisting of Ac-H4 peptide (83.5 nM) and TR-FRET detection reagents [16.7 nM anti-6His-XL665 and 3.34 nM streptavidin cryptate (both from Cisbio Bioassays, Codolet, France), and 668 mM potassium fluoride (KF)] were added. The mixture was then incubated in the dark at 22° C. for one hour and then at 4° C. overnight. The formation of BRD4/Ac-H4 complexes was determined by the measurement of the resonance energy transfer from the streptavidin-Eu cryptate to the anti-6His-XL665 antibody present in the reaction. […] The ratio of the emissions at 665 nm and at 622 nm was taken as an indicator of the amount of BRD4/Ac-H4 complexes formed.
For orientation: Time-resolved FRET reads energy transfer from a long-lived donor to a nearby acceptor.

Assay [2] has as its system LAPC-4 cells. The assay is described as follows: Cell proliferation (alamarBlue), LAPC-4. It counts as cell-based. The following applies: Homo sapiens, LAPC4; prostate carcinoma (androgen receptor-positive) cell line, 168 hours incubation. On the procedure: (§1) The ability of the compounds according to the invention to inhibit the proliferation of various cell lines was determined.
(§2) Cell viability was determined by means of the alamarBlue® reagent (Invitrogen). The cells were sown at different densities (MOLM-13, LAPC-4, MOLP-8 and MDA-MB-231: 4000 cells/well; B16F10: 400 cells/well) in 100 μl of growth medium on 96-well microtitre plates. After overnight incubation at 37° C., the fluorescence values (CI values) were determined. The plates were then treated with various substance dilutions and incubated at 37° C. for 96 hours (MOLM-13, MDA-MB-231 and B16F10 cells), 120 hours (MOLP-8 cells) or 168 hours (LAPC-4 cells). Subsequently, the fluorescence values were determined (CO values).
(§3) The compounds according to the invention were tested in the cell lines in Table 2, which represent the indications specified by way of example:
(§4) The indications corresponding to the different cell lines can be found in Table 2.
On the technique in general: The colour change of resazurin is a common sign of viable cells or microbes.

In assay [3] the test system is MOLM-13 cells. As to the kind of experiment: Cell proliferation (alamarBlue), MOLM-13. It counts as cell-based. The following applies: Homo sapiens, acute myeloid leukaemia cell line, 96 hours incubation. The procedure:
as §1
as §2, with “values). For the data analysis, the CI values were subtracted from the CO values and the results were compared between cells which had been treated with various dilutions of the substance or only with buffer solution.” for “values).”
as §3, §4

Assay [4] relates to MDA-MB-231 cells. As to the kind of experiment: Cell proliferation (alamarBlue), MDA-MB-231. It is filed as cell-based. The settings on record: Homo sapiens, mammary carcinoma cell line, 96 hours incubation. On the procedure:
as §1
as §2, with “values). For the data analysis, the CI values were subtracted from the CO values and the results were compared between cells which had been treated with various dilutions of the substance or only with buffer solution.” for “values).”
as §3, §4

Assay [5] has as its system B16F10 cells. The assay is described as follows: Cell proliferation (alamarBlue), B16F10. It is filed as cell-based. The following applies: Mus musculus, B16-F10; melanoma cell line, 96 hours incubation. The procedure:
as §1
as §2, with “values). For the data analysis, the CI values were subtracted from the CO values and the results were compared between cells which had been treated with various dilutions of the substance or only with buffer solution.” for “values).”
as §3, §4

Assay [6] concerns MOLP-8 cells. The assay is described as follows: Cell proliferation (alamarBlue), MOLP-8. It counts as cell-based. The following applies: Homo sapiens, multiple myeloma cell line, 120 hours incubation. On the procedure: as §1, §2, §3, §4

Regarding `Cc1nnc2n1-c1ccccc1C(c1ccc(Cl)cc1)=C[C@H]2CC(=O)N1CC2CCC(C1)O2` (single isomer, unassigned; (-)) [Example 33], the half-inhibitory concentration (IC50) in assay [1] was determined as 450 nM; in assay [2], 150 nM; in assay [3], 330 nM; in assay [4], 1290 nM; in assay [5], 400 nM.

With `CCNC(=O)CC1C=C(c2ccc(Cl)cc2)c2ccccc2-n2c(C)nnc21` (stereo in doubt) [Example 13, (−)-2-[(4R)-6-(4-chlorophenyl)-1-methyl-4H-[1,2,4]triazolo[4,3-a][1]benzazepin-4-yl]-N-ethylacetamide], the half-inhibitory concentration (IC50) was determined as 30 nM in assay [1]; 60 nM in assay [2]; 310 nM in assay [3]; 320 nM in assay [4]; 150 nM in assay [5].

As for `Cc1nnc2n1-c1ccccc1C(c1ccc(Cl)cc1)=CC2CC(=O)N1CCOCC1` (stereo in doubt) [Example 15, (−)-2-[(4R)-6-(4-chlorophenyl)-1-methyl-4H-[1,2,4]triazolo[4,3-a][1]benzazepin-4-yl]-1-(morpholin-4-yl)ethanone], the IC50 stood at 40 nM in assay [1]; 60 nM in assay [2]; 230 nM in assay [3]; 350 nM in assay [4]; 130 nM in assay [5].

Take `Cc1nnc(CC2C=C(c3ccc(Cl)cc3)c3ccccc3-n3c(C)nnc32)s1` (stereo in doubt) [Example 42, (+)-(4R)-6-(4-chlorophenyl)-1-methyl-4-[(5-methyl-1,3,4-thiadiazol-2-yl)methyl]-4H-[1,2,4]triazolo[4,3-a][1]benzazepine]: the half-inhibitory concentration (IC50) in assay [6] is 110 nM; in assay [1], 50 nM; in assay [3], 170 nM; in assay [5], 140 nM.

In the case of `Cc1nnc2n1-c1ccc(OC(F)(F)F)cc1C(c1ccc(Cl)cc1)=CC2CC(=O)OC(C)(C)C` (stereo in doubt) [Example 50, tert-butyl (−)-[(4R)-6-(4-chlorophenyl)-1-methyl-8-(trifluoromethoxy)-4H-[1,2,4]triazolo[4,3-a][1]benzazepin-4-yl]acetate], the half-inhibitory concentration (IC50) in assay [6] was 1050 nM; in assay [1], 790 nM; in assay [3], 880 nM; in assay [5], 1170 nM.

Regarding `Cc1nnc2n1-c1ccccc1C(c1ccc(Cl)cc1)=CC2CC(=O)OC(C)(C)C` (centres unmarked) [Example 8, tert-butyl [6-(4-chlorophenyl)-1-methyl-4H-[1,2,4]triazolo[4,3-a][1]benzazepin-4-yl]acetate], the IC50 worked out at 4800 nM in assay [6], 820 nM in assay [2], 3910 nM in assay [3] and 1000 nM in assay [5].

For the compound `Cc1nnc2n1-c1ccccc1C(c1cccc(Cl)c1)=CC2CC(=O)N1CC2(COC2)C1` (centres unmarked) [Example 10, 2-[6-(3-chlorophenyl)-1-methyl-4H-[1,2,4]triazolo[4,3-a][1]benzazepin-4-yl]-1-(2-oxa-6-azaspiro[3.3]hept-6-yl)ethanone], the IC50 in assay [6] was 1290 nM; in assay [1], 730 nM; in assay [2], 1610 nM; in assay [3] it was 2630 nM; in assay [5] it was 3030 nM.

As for `Cc1nnc2n1-c1ccccc1C(c1ccc(Cl)cc1)=CC2CC(=O)N1CC2(CCS2(=O)=O)C1` (centres unmarked) [Example 18, 2-[6-(4-chlorophenyl)-1-methyl-4H-[1,2,4]triazolo[4,3-a][1]benzazepin-4-yl]-1-(1,1-dioxido-1-thia-6-azaspiro[3.3]hept-6-yl)ethanone], the IC50 stood at 330 nM in assay [3], 800 nM in assay [4] and 360 nM in assay [5].

As for `Cc1nnc2n1-c1ccc(OC(F)(F)F)cc1C(c1ccc(Cl)cc1)=CC2CC(=O)OC(C)(C)C` (centres unmarked) [Example 49, tert-butyl [6-(4-chlorophenyl)-1-methyl-8-(trifluoromethoxy)-4H-[1,2,4]triazolo[4,3-a][1]benzazepin-4-yl]acetate], the IC50 in assay [6] came out at 1890 nM; in assay [3], 1690 nM; in assay [5], 2200 nM.

As to `Cc1nnc2n1-c1ccc(OC(F)(F)F)cc1C(c1ccc(Cl)cc1)=C[C@H]2CC(=O)N1CC2(COC2)C1` [Example 51], the half-maximal inhibitory concentration (IC50) in assay [6] was 360 nM; in assay [3] it was 390 nM; in assay [5] it was 580 nM.

Turning to `CCNC(=O)C[C@@H]1C=C(c2ccc(Cl)cc2)c2cc(OC(F)(F)F)ccc2-n2c(C)nnc21` [Example 52, 2-[(4R)-6-(4-chlorophenyl)-1-methyl-8-(trifluoromethoxy)-4H-[1,2,4]triazolo[4,3-a][1]benzazepin-4-yl]-N-ethylacetamide], the IC50 in assay [6] worked out at 260 nM; in assay [1], 190 nM; in assay [3] it was 310 nM; in assay [5] it was 420 nM.

For `Cc1nnc2n1-c1ccc(OC(F)(F)F)cc1C(c1ccc(Cl)cc1)=C[C@H]2CC(=O)NCCN1CCOCC1` [Example 53, 2-[(4R)-6-(4-chlorophenyl)-1-methyl-8-(trifluoromethoxy)-4H-[1,2,4]triazolo[4,3-a][1]benzazepin-4-yl]-N-[2-(morpholin-4-yl)ethyl]acetamide], the IC50 was 110 nM in assay [6], 80 nM in assay [1], 150 nM in assay [3] and 220 nM in assay [5].

`Cc1nnc(CC2C=C(c3ccc(Cl)cc3)c3cc(OC(F)(F)F)ccc3-n3c(C)nnc32)o1` (centres unmarked) [Example 54, 6-(4-chlorophenyl)-1-methyl-4-[(5-methyl-1,3,4-oxadiazol-2-yl)methyl]-8-(trifluoromethoxy)-4H-[1,2,4]triazolo[4,3-a][1]benzazepine]: the half-maximal inhibitory concentration (IC50) was determined as 360 nM in assay [6], 130 nM in assay [1], 300 nM in assay [3] and 500 nM in assay [5].

Turning to `Cc1nnc(C[C@@H]2C=C(c3ccc(Cl)cc3)c3cc(OC(F)(F)F)ccc3-n3c(C)nnc32)o1` [Example 55, (4R)-6-(4-chlorophenyl)-1-methyl-4-[(5-methyl-1,3,4-oxadiazol-2-yl)methyl]-8-(trifluoromethoxy)-4H-[1,2,4]triazolo[4,3-a][1]benzazepine], the IC50 in assay [6] was found to be 170 nM; in assay [1] it was 90 nM; in assay [3], 180 nM; in assay [5], 270 nM.

Consider `Cc1nnc2n1-c1ccc(OC(F)(F)F)cc1C(c1ccc(Cl)cc1)=C[C@H]2CC(=O)N1CCN2C(=O)CCC2C1` (stereo partly drawn) [Example 56, 2-{[(4R)-6-(4-chlorophenyl)-1-methyl-8-(trifluoromethoxy)-4H-[1,2,4]triazolo[4,3-a][1]benzazepin-4-yl]acetyl}hexahydropyrrolo[1,2-a]pyrazin-6(2H)-one], for which the IC50 in assay [6] came out at 120 nM; in assay [1], 180 nM; in assay [3], 150 nM; in assay [5], 220 nM.

As to `Cc1nnc2n1-c1ccccc1C(c1ccc(Cl)cc1)=C[C@H]2Cc1nnc(COCc2ccccc2)o1` [Example 57, (4R)-4-({5-[(benzyloxy)methyl]-1,3,4-oxadiazol-2-yl}methyl)-6-(4-chlorophenyl)-1-methyl-4H-[1,2,4]triazolo[4,3-a][1]benzazepine], the IC50 in assay [6] was 420 nM; in assay [1], 270 nM; in assay [3], 410 nM; in assay [5], 570 nM.
